From ChEMBL document CHEMBL4627323, “Synthesis and anti-OXPHOS, antitumor activities of DLC modified spinosyn derivatives” (Bioorg Med Chem Lett, 2020)
Each block holds one molecule with its values, some of them ahead of it. Activity calls are given as the source filed them. The calls are words filed in the database; no cut-off is given here.

Experiments:
[1] = Toxicity in nude mouse xenografted with human NCI-H460 cells assessed as body weight loss at 5 to 10 mg/kg, ip administered every other day for 21 days; format: organism-based; conditions: in vivo, 504 h
NCI-H460 [2] = assay: Antitumor activity against human NCI-H460 cells xenografted in nude mouse assessed as inhibition of tumor mass at 5 mg/kg, ip administered every other day for 21 days measured every 3 days; format: functional
MCF7 = assay: Antiproliferative activity against human MCF7 cells incubated for 48 hrs; format: functional, cell-based; conditions: MCF7, 48 h
NCI-H460 [3] = assay: Antiproliferative activity against human NCI-H460 cells assessed as inhibition of cell growth at 32 uM incubated for 3 hrs; format: functional, cell-based
NCI-H460 [4] = assay: Induction of apoptosis in human NCI-H460 cells assessed as early apoptotic cells at 2 uM by Annexin V/PI staining based flow cytometric analysis (reference value: […]); format: functional
NCI-H460 [5] = assay: Induction of apoptosis in human NCI-H460 cells assessed as late apoptotic cells at 2 uM by Annexin V/PI staining based flow cytometric analysis (reference value: 1.17%); format: functional
NCI-H460 [6] = assay: Anti-OXPHOS activity in human NCI-H460 cells assessed as inhibition of mitochondrial oxidative phosphorylation by seahorse XFe96 analyser based assay; conditions: Mitochondria
NCI-H460 [7] = assay: Induction of apoptosis in human NCI-H460 cells assessed as late apoptotic cells at 4 uM by Annexin V/PI staining based flow cytometric analysis (reference value: 1.17%); format: functional
NCI-H460 [8] = assay: Induction of apoptosis in human NCI-H460 cells by Annexin V/PI staining based flow cytometric analysis; format: functional, cell-based
NCI-H460 [9] = assay: Induction of apoptosis in human NCI-H460 cells assessed as early apoptotic cells at 4 uM by Annexin V/PI staining based flow cytometric analysis (reference value: […]); format: functional
NCI-H460 [10] = assay: Antiproliferative activity against human NCI-H460 cells incubated for 48 hrs; format: functional, cell-based; conditions: NCI-H460, 48 h
NCI-H460 [11] = assay: Anti-OXPHOS activity in human NCI-H460 cells assessed as inhibition of oxygen consumption rate at 8 uM by seahorse XFe96 analyser based assay
U-87 MG = assay: Antiproliferative activity against human U87MG cells incubated for 48 hrs; format: functional, cell-based, U-87MG ATCC
NCI-H460 [12] = assay: Induction of apoptosis in human NCI-H460 cells assessed as viable cells at 2 uM by Annexin V/PI staining based flow cytometric analysis (reference value: 95.3%); format: functional; conditions: read-out: Activity
NCI-H460 [13] = assay: Anti-OXPHOS activity in human NCI-H460 cells assessed as inhibition of oxygen consumption rate at 4 uM incubated for 1 hr by seahorse XFe96 analyser based assay relative to control
NCI-H460 [14] = assay: Induction of apoptosis in human NCI-H460 cells assessed as necrotic cells at 2 uM by Annexin V/PI staining based flow cytometric analysis (reference value: 2.75%); format: functional
[15] = Toxicity in nude mouse xenografted with human NCI-H460 cells assessed as mortality at 10 mg/kg, ip administered every other day for 21 days; format: organism-based; conditions: in vivo, 504 h
HCT-116 = assay: Antiproliferative activity against human HCT116 cells incubated for 48 hrs; format: functional, cell-based; conditions: HCT-116, 48 h
NCI-H460 [16] = assay: Induction of apoptosis in human NCI-H460 cells assessed as viable cells at 4 uM by Annexin V/PI staining based flow cytometric analysis (reference value: 95.3%); format: functional; conditions: read-out: Activity
NCI-H460 [17] = assay: Anti-OXPHOS activity in human NCI-H460 cells assessed as inhibition of oxygen consumption rate at 8 uM in presence of uncoupling agent, FCCP by seahorse XFe96 analyser based assay
NCI-H460 [18] = assay: Induction of apoptosis in human NCI-H460 cells assessed as necrotic cells at 4 uM by Annexin V/PI staining based flow cytometric analysis (reference value: 2.75%); format: functional
NCI-H460 [19] = assay: Antitumor activity against human NCI-H460 cells xenografted in nude mouse assessed as decrease in tumor volume at 5 mg/kg, ip administered every other day for 21 days measured every 3 days; format: functional, organism-based
NCI-H460 [20] = assay: Inhibition of F0 subunit in F0F1 ATP synthase in human NCI-H460 cells assessed as inhibition of oxygen consumption rate at 1 uM by seahorse XFe96 analyser based assay; format: cell-based
NCI-H460 [21] = assay: Antitumor activity against human NCI-H460 cells xenografted in nude mouse assessed as decrease in tumor volume at 2.5 mg/kg, ip administered every other day for 21 days measured every 3 days; format: functional, organism-based
[22] = Toxicity in nude mouse xenografted with human NCI-H460 cells assessed as mortality at 5 mg/kg, ip administered every other day for 21 days; format: organism-based; conditions: in vivo, 504 h
[23] = Toxicity in nude mouse xenografted with human NCI-H460 cells assessed as body weight loss at 2.5 to 5 mg/kg, ip administered every other day for 21 days; format: organism-based; conditions: in vivo, 504 h
NCI-H460 [24] = assay: Antitumor activity against human NCI-H460 cells xenografted in nude mouse assessed as inhibition of tumor mass at 2.5 mg/kg, ip administered every other day for 21 days measured every 3 days; format: functional

SMILES: CC[C@H]1CCC[C@H](O[C@H]2CC[C@H](N(C)CCCCCC[n+]3ccc4ccccc4c3)[C@@H](C)O2)[C@@H](C)C(=O)C2=C[C@@H]3[C@@H](C=C[C@@H]4C[C@@H](O[C@@H]5O[C@@H](C)[C@H](OC)[C@@H](OC)[C@H]5OC)C[C@@H]34)[C@@H]2CC(=O)O1.[Br-]
Activity [1]: Non-Toxic
inhibition in vivo at 5 mg/kg (NCI-H460 [2]): 8.8%
IC50 (MCF7): 8.9 µM
inhibition (NCI-H460 [3]): inactive
Activity (NCI-H460 [4]): 9.36%
Activity (NCI-H460 [5]): 5.01%
inhibition (NCI-H460 [6]): Dose-dependent effect
Activity (NCI-H460 [7]): 6.98%
Activity (NCI-H460 [8]): Dose-dependent effect
Activity (NCI-H460 [9]): 20.7%
IC50 (NCI-H460 [10]): 4.6 µM
inhibition (NCI-H460 [11]): Active
IC50 (U-87 MG): 2.5 µM
viability at 2 µM (NCI-H460 [12]): 84.4%
inhibition (NCI-H460 [13]): 41%
Activity (NCI-H460 [14]): 1.21%
Activity [15]: Toxic
IC50 (HCT-116): 2.8 µM
viability at 4 µM (NCI-H460 [16]): 70.7%
inhibition (NCI-H460 [17]): inactive
Activity (NCI-H460 [18]): 1.58%
inhibition (NCI-H460 [19]): Active

SMILES: CC[C@H]1CCC[C@H](OC(=O)C[n+]2ccccc2)[C@@H](C)C(=O)C2=C[C@@H]3[C@@H](C=C[C@@H]4C[C@@H](O[C@@H]5O[C@@H](C)[C@H](OC)[C@@H](OC)[C@H]5OC)C[C@@H]34)[C@@H]2CC(=O)O1
IC50 (MCF7): > 100 µM

SMILES: CC[C@H]1/C=C/C=C/C[C@@H](C)[C@H](O)[C@@](C)(O)C(=O)[C@@H](C)[C@H](O)[C@@H](C)C(=O)[C@@H](C)[C@H](O)[C@@H](C)/C=C/C(=O)O[C@@H]2[C@H](C)[C@H](CC1)O[C@]1(CC[C@H](C)[C@H](C[C@@H](C)O)O1)[C@H]2C
inhibition (NCI-H460 [20]): Active

SMILES: CC[C@H]1CCC[C@H](O[C@H]2CC[C@H](N(C)CCCCCC[P+](c3ccccc3)(c3ccccc3)c3ccccc3)[C@@H](C)O2)[C@@H](C)C(=O)C2=C[C@@H]3[C@@H](C=C[C@@H]4C[C@@H](O[C@@H]5O[C@@H](C)[C@H](OC)[C@@H](OC)[C@H]5OC)C[C@@H]34)[C@@H]2CC(=O)O1.[Br-]
IC50 (MCF7): 2 µM
inhibition (NCI-H460 [21]): Active
inhibition (NCI-H460 [3]): inactive
Activity (NCI-H460 [4]): 19.9%
Activity (NCI-H460 [5]): 3.91%
inhibition (NCI-H460 [6]): Dose-dependent effect
Activity (NCI-H460 [7]): 6.99%
Activity (NCI-H460 [8]): Dose-dependent effect
Activity [22]: Toxic
Activity (NCI-H460 [9]): 22%
IC50 (NCI-H460 [10]): 1.6 µM
inhibition (NCI-H460 [11]): Active
IC50 (U-87 MG): 1.3 µM
viability at 2 µM (NCI-H460 [12]): 74.8%
inhibition (NCI-H460 [13]): 42%
Activity (NCI-H460 [14]): 1.38%
IC50 (HCT-116): 0.3 µM
Activity [23]: Non-Toxic
viability at 4 µM (NCI-H460 [16]): 69.3%
inhibition (NCI-H460 [17]): inactive
Activity (NCI-H460 [18]): 1.69%
inhibition in vivo at 2.5 mg/kg (NCI-H460 [24]): 14.6%

SMILES: CC[C@H]1CCC[C@H](OC(=O)CCC[n+]2ccccc2)[C@@H](C)C(=O)C2=C[C@@H]3[C@@H](C=C[C@@H]4C[C@@H](O[C@@H]5O[C@@H](C)[C@H](OC)[C@@H](OC)[C@H]5OC)C[C@@H]34)[C@@H]2CC(=O)O1
IC50 (MCF7): > 100 µM

SMILES: CC[C@H]1CCC[C@H](O[C@H]2CC[C@H](N(C)CCC[n+]3cccc(C(N)=O)c3)[C@@H](C)O2)[C@@H](C)C(=O)C2=C[C@@H]3[C@@H](C=C[C@@H]4C[C@@H](O[C@@H]5O[C@@H](C)[C@H](OC)[C@@H](OC)[C@H]5OC)C[C@@H]34)[C@@H]2CC(=O)O1
IC50 (MCF7): > 100 µM

SMILES: CC[C@H]1CCC[C@H](O[C@H]2CC[C@H](N(C)C)[C@@H](C)O2)[C@@H](C)C(=O)C2=C[C@@H]3[C@@H](C=C[C@@H]4C[C@@H](O[C@@H]5O[C@@H](C)[C@H](OC)[C@@H](OC)[C@H]5OC)C[C@@H]34)[C@@H]2CC(=O)O1 [SPINOSYN A]
IC50 (MCF7): 17.9 µM
IC50 (NCI-H460 [10]): 67.5 µM
IC50 (U-87 MG): 96.5 µM
IC50 (HCT-116): 11.1 µM

SMILES: CC[C@H]1CCC[C@H](OC(=O)CCC[P+](c2ccccc2)(c2ccccc2)c2ccccc2)[C@@H](C)C(=O)C2=C[C@@H]3[C@@H](C=C[C@@H]4C[C@@H](O[C@@H]5O[C@@H](C)[C@H](OC)[C@@H](OC)[C@H]5OC)C[C@@H]34)[C@@H]2CC(=O)O1
IC50 (MCF7): 3.1 µM
IC50 (NCI-H460 [10]): 1.5 µM
IC50 (U-87 MG): 2.7 µM
IC50 (HCT-116): 0.8 µM

SMILES: CC[C@H]1CCC[C@H](O[C@H]2CC[C@H](N(C)CCC[P+](c3ccccc3)(c3ccccc3)c3ccccc3)[C@@H](C)O2)[C@@H](C)C(=O)C2=C[C@@H]3[C@@H](C=C[C@@H]4C[C@@H](O[C@@H]5O[C@@H](C)[C@H](OC)[C@@H](OC)[C@H]5OC)C[C@@H]34)[C@@H]2CC(=O)O1
IC50 (MCF7): 4.1 µM
IC50 (NCI-H460 [10]): 2.7 µM
IC50 (U-87 MG): 1.3 µM
IC50 (HCT-116): 0.1 µM

SMILES: CC[C@H]1CCC[C@H](O[C@H]2CC[C@H](N(C)CCCCCC[n+]3ccccc3)[C@@H](C)O2)[C@@H](C)C(=O)C2=C[C@@H]3[C@@H](C=C[C@@H]4C[C@@H](O[C@@H]5O[C@@H](C)[C@H](OC)[C@@H](OC)[C@H]5OC)C[C@@H]34)[C@@H]2CC(=O)O1
IC50 (MCF7): 4.3 µM
IC50 (NCI-H460 [10]): 22 µM
IC50 (U-87 MG): 11.2 µM
IC50 (HCT-116): 9.8 µM

Second part, the molecule after the results:

IC50 (MCF7): 23.7 µM
SMILES: CC[C@H]1CCC[C@H](O[C@H]2CC[C@H](N(C)CCC[n+]3ccccc3)[C@@H](C)O2)[C@@H](C)C(=O)C2=C[C@@H]3[C@@H](C=C[C@@H]4C[C@@H](O[C@@H]5O[C@@H](C)[C@H](OC)[C@@H](OC)[C@H]5OC)C[C@@H]34)[C@@H]2CC(=O)O1

IC50 (MCF7): > 100 µM
SMILES: CC[C@H]1CCC[C@H](OC(=O)C[n+]2cccc(C(N)=O)c2)[C@@H](C)C(=O)C2=C[C@@H]3[C@@H](C=C[C@@H]4C[C@@H](O[C@@H]5O[C@@H](C)[C@H](OC)[C@@H](OC)[C@H]5OC)C[C@@H]34)[C@@H]2CC(=O)O1

IC50 (MCF7): > 100 µM
SMILES: CC[C@H]1CCC[C@H](OC(=O)CCC[n+]2cccc(C(N)=O)c2)[C@@H](C)C(=O)C2=C[C@@H]3[C@@H](C=C[C@@H]4C[C@@H](O[C@@H]5O[C@@H](C)[C@H](OC)[C@@H](OC)[C@H]5OC)C[C@@H]34)[C@@H]2CC(=O)O1

IC50 (MCF7): 30.5 µM
SMILES: CC[C@H]1CCC[C@H](O[C@H]2CC[C@H](N(C)CCCCCC[n+]3cccc(C(N)=O)c3)[C@@H](C)O2)[C@@H](C)C(=O)C2=C[C@@H]3[C@@H](C=C[C@@H]4C[C@@H](O[C@@H]5O[C@@H](C)[C@H](OC)[C@@H](OC)[C@H]5OC)C[C@@H]34)[C@@H]2CC(=O)O1
